Data published in US20250114353A1, “Combination Treatment Regimens - SMARCA2 Degrader With Gemcitabine” (priority 2023, published 2025).

Tested on: NCI-H838 tumors
Assay: NCI-H838 tumor bearing mouse model (SMARCA4-deficient lung cancer xenograft), tumor growth inhibition
Format: in vivo
Settings: NOD/SCID female mice, NCI-H838-#5 s.c. xenograft, versus vehicle
Protocol: NOD/SCID female mice were inoculated subcutaneously with NCI-H838-#5 cells (5×10^6) into the right flank in PBS 0.1 ml mixed with Matrigel.
As used herein, tumor growth inhibition is calculated as follows: Mean % Inhibition=(mean(C)−mean(T))/mean(C)*100%, wherein C is the tumor volume in the control arm, and T is the tumor volume in the treatment arm.
The NCI-H838-#5 tumor cells are maintained in vitro with RPMI1640 medium supplemented with 10% fetal bovine serum at 37° C. in an atmosphere of 5% CO2 in air. The cells in exponential growth phase are harvested and quantitated by cell counter before tumor inoculation. NOD-SCID female mice are inoculated subcutaneously in the right front flank region with NCI-H838-#5 tumor cells (5×10^6) in 0.1 ml of PBS mixed with Matrigel (1:1) for tumor development. The randomization is performed when the mean tumor size reaches approximately 100-150 mm^3.
For the NCI-H838 CDX model, mice are inoculated subcutaneously with the NCI-H838 tumor cells (5×10^6).

Row | SMILES | tumor growth inhibition (TGI) (single agent gemcitabine 100 mg/kg i.v. BIW) | tumor growth inhibition (TGI) (single agent Formula (I) 100 mg/kg s.c. Q3D)
1 | Nc1ccn([C@@H]2O[C@H](CO)[C@@H](O)C2(F)F)c(=O)n1 [gemcitabine, 4-amino-1-((2R,4R,5R)-3,3-difluoro-4-hydroxy-5-(hydroxymethyl)tetrahydrofuran-2-yl)pyrimidin-2(1H)-one] | significant tumor growth inhibition | –
2 | Cc1ncsc1-c1ccc([C@H](C)NC(=O)[C@@H]2C[C@@H](O)CN2C(=O)[C@@H](c2cc(O[C@@H](C)CN3CC[C@@H](N4CCN5c6cc(-c7ccccc7O)nnc6NC[C@H]5C4)C3)no2)C(C)C)cc1 [Formula (I)] | – | significantly inhibits the growth of NCI-H838 tumors
